Results taken from US6613745B1, “Therapeutic molecules derived from snake venom” (National University of Singapore, priority 1997, dated 2003).
Entries after “also recorded” stand apart in the source; their conditions may differ. Peptide text beside a SMILES is read from it.

System: chick biventer muscle
Assay: Chick biventral experiment: contractile (twitch) responses evoked by electrical field stimulation
Set-up: species or system Gallus domesticus

## C[C@@H](O)[C@H](NC(=O)[C@@H]1CCCN1C(=O)[C@H](Cc1ccccc1)NC(=O)[C@@H]1CCCN1C(=O)[C@@H](N)CC(N)=O)C(=O)N[C@@H](Cc1c[nH]c2ccccc12)C(=O)N[C@@H](CCCNC(=N)N)C(=O)N[C@@H](CCCCN)C(=O)N[C@@H](CCCNC(=N)N)C(=O)N1CCC[C@H]1C(=O)NCC(=O)O [synthesized peptide, Asn-Pro-Phe-Pro-Thr-Trp-Arg-Lys-Arg-Pro-Gly] (H-NPFPTWRKRPG-OH)
10 μg peptide added, EFS 25 V, 5 Hz×10s, 1 ms pulse width, every 100s, FIG. 1, listed as analgesic peptide
  contractile (twitch) response of chick biventer evoked by electrical field stimulation: no change; also recorded: no effect
10 μg peptide, concluded from FIG. 1
  neurotoxic effect on the neuromuscular junction: no neurotoxic effect
